Activity calls are given as the source filed them.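 Rule for the calls: active = cell-killing curve crosses a set limit at a concentration no more than twice the top valid dose; inconclusive = flat curve with a 30 to 70% loss, or a poor fit; inactive = signal rising instead of falling, and the rest.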

We go through 70 compounds from PubChem BioAssay AID720570 (Broad Institute, 2013).

A short description of the assay: TC71 Ewing sarcoma cell killing, confirmation, luminescence, cherry-picked samples, retest (AID 720570). To be noted: TC71 Ewing sarcoma viability, CellTiter-Glo ATP, 72 h.

For the compound `Cc1ccc(NC(=O)CCN2CCCCC2)cc1`, the activity change, negative = cytotoxicity (at 26 µM (top of the series)) is 3.68% (inactive).
As for `CC(=O)c1ccc(N=C2C(=O)Nc3ccccc32)cc1`, the activity change, negative = cytotoxicity (at 26 µM (top of the series)) is -7.15% (inactive).
With `N/C(Cc1nc(-c2ccc(F)cc2)cs1)=N\O`, the activity change, negative = cytotoxicity (at 26 µM (top of the series)) is 11.6% (inactive).
Regarding `C(=N\Nc1ccc2ccccc2n1)/c1ccc2c(c1)OCO2`, the activity change, negative = cytotoxicity (at 26 µM (top of the series)) is -9% (inactive).
On to `C[C@@H]1CCCCO[C@H](CN(C)Cc2ccc(C(F)(F)F)cc2)[C@H](C)CN([C@H](C)CO)C(=O)c2cc(NC(=O)CCCN(C)C)ccc2O1`, for which, under “at 26 µM (top of the series)”, the activity change, negative = cytotoxicity is -2.5% (inactive).
Still for that read-out and setting: in the case of `O=C(O)c1cccc(N/N=C/c2cccs2)c1` it was 8.12% (inactive); in that of `Cc1ccsc1C(=O)OCC(=O)NCCC1=CCCCC1`, 9.59% (inactive); in that of `C[C@@H]1CN([C@@H](C)CO)S(=O)(=O)c2ccc(C#Cc3ccncc3)cc2O[C@H]1CN(C)S(=O)(=O)c1ccccc1`, -2.93% (inactive).
On to `O=C1Nc2ccccc2C1=Nc1ccc(Br)cc1`, for which the activity change, negative = cytotoxicity (at 26 µM (top of the series)) is -5.59% (inactive).
As for `COc1ccc(/C=C2\SC(=S)N(CCCC(=O)Nc3ccc(O)cc3)C2=O)cc1`, the activity change, negative = cytotoxicity (at 26 µM (top of the series)) is 0.096% (inactive).
As to `C=CCn1c(O)c(N=Nc2ccccc2)c2ccccc21`, the activity change, negative = cytotoxicity (at 26 µM (top of the series)) was 10.5% (inactive).
Regarding `COc1ccc(Nc2ncnc3ccc(Br)cc23)c(OC)c1`, where the note is “at 26 µM (top of the series)”, the activity change, negative = cytotoxicity is 6.89% (inactive).
For `O=C(NC(=O)c1ccccc1)Nc1ccccc1`, under “at 26 µM (top of the series)”, the activity change, negative = cytotoxicity is 10.6% (inactive).
In the case of `O=C(CN1C(=O)c2ccccc2S1(=O)=O)c1ccc(F)cc1`, the activity change, negative = cytotoxicity (at 26 µM (top of the series)) is 12.8% (inactive).
On to `Cc1cc(Br)ccc1N=C1C(=O)Nc2ccccc21`, for which the activity change, negative = cytotoxicity (at 26 µM (top of the series)) is 6.85% (inactive).
For the compound `COc1ccc(CN(C)C[C@H]2Oc3ccc(NC(=O)CCCCCC(=O)Nc4ccccc4N)cc3CC(=O)N([C@H](C)CO)C[C@H]2C)cc1`, the activity change, negative = cytotoxicity (at 21 µM (top of the series)) was -5.04% (inactive).
`Cc1cc(C(=O)CN2C(=O)c3ccccc3S2(=O)=O)c(C)n1C(C)C`: the activity change, negative = cytotoxicity (at 26 µM (top of the series)) is 3.94% (inactive).
For the compound `COC(=O)C[C@@H]1CC[C@@H]2[C@H](COc3ccc(NC(=O)c4cccc(Cl)c4)cc3C(=O)N2C)O1`, the activity change, negative = cytotoxicity (at 23.5 µM (top of the series)) was 2.41% (inactive).
In the case of `CC1(CCc2ccccc2)NC(=O)N(CC(=O)N2CC(=O)Nc3ccccc32)C1=O` (stereo not given), the activity change, negative = cytotoxicity (at 26 µM (top of the series)) was 3.37% (inactive).
For `C[C@@H]1CN([C@H](C)CO)C(=O)c2cc(NC(=O)Nc3ccccc3)ccc2O[C@@H]1CN(C)Cc1ccc(C(=O)Nc2ccccc2N)cc1`, for the setting “at 26 µM (top of the series)”, the activity change, negative = cytotoxicity is -33.9% (inactive).
For `COC(=O)C[C@H]1C=C[C@@H](NC(=O)Nc2ccc(C(F)(F)F)cc2)[C@H](CO)O1`, the activity change, negative = cytotoxicity (at 26 µM (top of the series)) was 9.61% (inactive).
With `CCCc1nc2ccc(NC(=O)c3cccs3)cc2c(=O)n1Cc1ccccc1Cl`, for the setting “at 26 µM (top of the series)”, the activity change, negative = cytotoxicity was 2.97% (inactive).
For the compound `Cc1ccc(NC(=O)COC(=O)c2ccc3c(c2)OCO3)cc1S(=O)(=O)N1CCCCC1`, for the setting “at 26 µM (top of the series)”, the activity change, negative = cytotoxicity was 10.2% (inactive).
Consider `CCOc1ccc(-c2cc(CCCC(=O)N3CCN(c4ccc(OC)cc4)CC3)no2)cc1`, for which the activity change, negative = cytotoxicity (at 26 µM (top of the series)) is -1.53% (inactive).
On to `C/C=C/c1ccc([C@H]2[C@@H](CO)N3C(=O)CN(S(=O)(=O)c4cccc(F)c4)C[C@@H]23)cc1`, for which the activity change, negative = cytotoxicity (at 26 µM (top of the series)) is 13.2% (inactive).
`CCCCOc1ccc(NC(=O)C(=O)NCCCn2ccnc2)cc1`: the activity change, negative = cytotoxicity (at 26 µM (top of the series)) was -2% (inactive).
As to `C[C@@H]1CN([C@H](C)CO)C(=O)c2cc(NC(=O)CCCCCC(=O)Nc3ccccc3N)ccc2O[C@H]1CN(C)S(=O)(=O)c1ccc(Cl)cc1`, the activity change, negative = cytotoxicity (at 26 µM (top of the series)) was -12.6% (inactive).
Take `COC(=O)C[C@@H]1CC[C@@H]2[C@@H](COc3ccc(NC(=O)Nc4cccc(F)c4)cc3C(=O)N2C)O1`: the activity change, negative = cytotoxicity (at 26 µM (top of the series)) is 5.61% (inactive).
In the case of `COc1ccc(/C=N/Nc2ccc(C(=O)O)cc2)cc1Br`, the activity change, negative = cytotoxicity (at 26 µM (top of the series)) is -12.7% (inactive).
For the compound `CC(C)(C)c1ccc(Oc2ccc(NC(=O)C3CC=CCC3C(=O)O)cc2)cc1` (stereo not given), the activity change, negative = cytotoxicity (at 26 µM (top of the series)) is -20.1% (inactive).
For `COC(=O)C[C@@H]1CC[C@@H]2[C@@H](COc3ccc(NC(=O)Nc4ccc(C#N)cc4)cc3C(=O)N2C)O1`, the activity change, negative = cytotoxicity (at 26 µM (top of the series)) is 15% (inactive).
Take `O=C(NCCc1ccccc1)c1ccccc1NC(=O)C1CCCO1` (stereo not given): the activity change, negative = cytotoxicity (at 26 µM (top of the series)) was -0.496% (inactive).
Still for that read-out and setting: in the case of `COCCOC(=O)N1C(=O)[C@@]2(c3cc(C#CCC(C(=O)OC)C(=O)OC)ccc31)[C@H](c1ccccc1OCCO)N1[C@H](c3ccccc3)[C@H](c3ccccc3)OC(=O)[C@H]1[C@@H]2C(=O)N1CCN(c2ncccn2)CC1` it was 16.1% (inactive); in that of `CCC(C)Cn1c(O)cc2nn(-c3nc4ccccc4s3)c(=O)c-2c1C` (stereo not given), -4.93% (inactive); in that of `CC(NC(=O)c1ccco1)c1nc(-c2ccc(C(C)(C)C)cc2)no1` (stereo not given), -6.69% (inactive).
Regarding `COc1cc(/C=N\Nc2nc(-c3ccc(C)cc3)c(NC(C)=O)s2)ccc1O`, the activity change, negative = cytotoxicity (at 26 µM (top of the series)) was 4.59% (inactive).
For `Cc1ccc(N=C2NC(=O)/C(=C\c3cccs3)S2)cc1C`, the activity change, negative = cytotoxicity (at 26 µM (top of the series)) was -0.931% (inactive).
Same read-out and setting: then `CCN(CC)C(=O)CN1C(=O)C(=O)c2ccccc21`, with 6.39% (inactive).
`N#C[C@H]1[C@H](c2ccc(C#Cc3ccccc3F)cc2)[C@@H](CO)N1C(=O)C1CCCCC1`: the activity change, negative = cytotoxicity (at 23.5 µM (top of the series)) was -17% (inactive).
Turning to `O=C(Nc1cccc(Oc2ccc3c(c2)C(=O)NC3=O)c1)c1cccs1`, the activity change, negative = cytotoxicity (at 26 µM (top of the series)) is 9.53% (inactive).
In the case of `CN(C)c1ccc(N=Nc2ccccc2Br)cc1`, the activity change, negative = cytotoxicity (at 26 µM (top of the series)) was -15.6% (inactive).
In the case of `COc1ccc(/C=C2\SC(=S)N(CCCC(=O)NNC(=O)c3ccccc3O)C2=O)cc1`, for the setting “at 26 µM (top of the series)”, the activity change, negative = cytotoxicity was -6.8% (inactive).
On to `COc1ccccc1-c1cn(CC[C@H]2CC[C@@H](NC(=O)C3CCCC3)[C@@H](CO)O2)nn1`, for which, where the note is “at 26 µM (top of the series)”, the activity change, negative = cytotoxicity was 12.9% (inactive).
Regarding `O=C1C(=O)N(Cc2cccs2)c2ccccc21`, the activity change, negative = cytotoxicity (at 26 µM (top of the series)) was 17.4% (inactive).
With `Cc1ccccc1N=Nc1c(O)n(C)c2ccccc12`, the activity change, negative = cytotoxicity (at 26 µM (top of the series)) was 3.17% (inactive).
Turning to `Cc1ccc(/C=C2\SC(=S)N(CCCC(=O)NNC(=O)c3ccccc3O)C2=O)cc1`, the activity change, negative = cytotoxicity (at 26 µM (top of the series)) was -5.43% (inactive).
Regarding `COc1cc(/C=N/NS(=O)(=O)c2ccc(C)cc2)ccc1OCc1cccc(C(=O)O)c1`, under “at 26 µM (top of the series)”, the activity change, negative = cytotoxicity was -3.76% (inactive).
`O=C(Nc1ccc(OC(=O)N2CCCCC2)cc1)N1CCOCC1`: under “at 26 µM (top of the series)”, the activity change, negative = cytotoxicity was 2.31% (inactive).
The same measure, in the same setting: then `CO[C@H]1CN(C)C(=O)c2ccc(NC(=O)c3ccc(-c4ccccc4)cc3)cc2OC[C@H](C)NC[C@H]1C`, with 7.36% (inactive); and `COC(=O)C[C@H]1CC[C@H]2[C@H](COc3ccc(NC(=O)Nc4cccc(Cl)c4)cc3C(=O)N2C)O1`, with -2.79% (inactive).
On to `O=C(Cc1nn[nH]n1)c1ccccc1O`, for which, for the setting “at 26 µM (top of the series)”, the activity change, negative = cytotoxicity is 13.8% (inactive).
On to `O=C(CCCN1C(=O)/C(=C/c2ccccc2Cl)SC1=S)NNC(=O)c1ccc(Cl)cc1`, for which the activity change, negative = cytotoxicity (at 26 µM (top of the series)) was -7.21% (inactive).
As for `C=CC[n+]1c(-c2ccc(C)cc2)csc1Nc1ccc(NC(C)=O)cc1`, the activity change, negative = cytotoxicity (at 26 µM (top of the series)) is 0.856% (inactive).
Still for that read-out and setting: in the case of `COc1ccc(C/C(N)=N/OC(C)=O)cc1OC` it was 9.15% (inactive); in that of `NC1=CC(=O)C(=O)c2cccnc21`, 1.93% (inactive).
As to `O=C(Nc1ccc(NC(=O)c2cc3ccccc3o2)cc1)c1ccc2c(c1)OCCO2`, the activity change, negative = cytotoxicity (at 26 µM (top of the series)) is -3.21% (inactive).
Same read-out and setting: then `CCOc1cc2[nH]c(=S)n(Cc3ccc(C(=O)N4CCN(C)CC4)cc3)c(=O)c2cc1OCC`, with 11.2% (inactive); and `CCS(=O)(=O)N1Cc2ccccc2CC1C(=O)Nc1nnc(SCc2ccc(C#N)cc2)s1` (stereo not given), with 21.3% (inactive).
For the compound `CCn1c(C)cc(C(=O)CN2C(=O)c3ccccc3S2(=O)=O)c1C`, the activity change, negative = cytotoxicity (at 26 µM (top of the series)) is 9.04% (inactive).
The same measure, in the same setting: then `CC(=O)Nc1cc(C(=O)NCc2ccco2)ccc1Sc1ccc(F)cc1`, with -1.03% (inactive); and `Nc1ccc(Oc2cccc(Oc3ccc(N)cc3)c2)cc1`, with -7.72% (inactive); and `CN(C)C(=S)N=Nc1[nH]c2ccccc2c1O`, with 16.9% (inactive).
For `C[C@@H]1CN([C@@H](C)CO)S(=O)(=O)c2ccc(C#Cc3ccncc3)cc2O[C@H]1CN(C)C(=O)C1CCOCC1`, the activity change, negative = cytotoxicity (at 26 µM (top of the series)) was -5.87% (inactive).
On to `O=C1c2ccc3c4c(ccc(c24)C(=O)N1c1cccc(O)c1)C(=O)N(c1cccc(O)c1)C3=O`, for which the activity change, negative = cytotoxicity (at 26 µM (top of the series)) is -1.18% (inactive).
Turning to `CCOc1cc2[nH]c(=S)n(Cc3ccc(C(=O)NCCN(CC)CC)cc3)c(=O)c2cc1OCC`, the activity change, negative = cytotoxicity (at 26 µM (top of the series)) is 11.4% (inactive).
Turning to `Cc1cc2sc3ccc(C#CC4(O)CCCCC4)cc3c(=O)c2cc1C`, where the note is “at 26 µM (top of the series)”, the activity change, negative = cytotoxicity is 23.5% (inactive).
As to `COc1ccc(S(=O)(=O)N=Nc2c(O)[nH]c3ccccc23)cc1`, under “at 26 µM (top of the series)”, the activity change, negative = cytotoxicity is 5.63% (inactive).
As for `C[C@@H]1CN([C@H](C)CO)S(=O)(=O)c2ccc(C#Cc3ccncc3)cc2O[C@@H]1CN(C)C(=O)Nc1ccc2c(c1)OCO2`, the activity change, negative = cytotoxicity (at 26 µM (top of the series)) was -0.54% (inactive).
With `N#C[C@@H]1[C@H](c2ccc(C#Cc3ccccc3F)cc2)[C@@H](CO)N1C(=O)c1cccnc1`, where the note is “at 26 µM (top of the series)”, the activity change, negative = cytotoxicity is 13.1% (inactive).
Take `Cc1ccc(-c2ccc3c(c2)O[C@@H](CN(C)C(=O)Nc2ccc(F)cc2)[C@H](C)CN([C@@H](C)CO)S3(=O)=O)cc1`: the activity change, negative = cytotoxicity (at 26 µM (top of the series)) is -12.5% (inactive).
